{"source": "ChEMBL document CHEMBL1127711", "about": "“Preparation of a novel series of phosphonate norstatine renin inhibitors” (Bioorg Med Chem Lett, 1994)", "data": [{"molecular_target": "T1, Renin (Homo sapiens, UniProt P00797)", "T1 sequence (P00797 whole entry)": "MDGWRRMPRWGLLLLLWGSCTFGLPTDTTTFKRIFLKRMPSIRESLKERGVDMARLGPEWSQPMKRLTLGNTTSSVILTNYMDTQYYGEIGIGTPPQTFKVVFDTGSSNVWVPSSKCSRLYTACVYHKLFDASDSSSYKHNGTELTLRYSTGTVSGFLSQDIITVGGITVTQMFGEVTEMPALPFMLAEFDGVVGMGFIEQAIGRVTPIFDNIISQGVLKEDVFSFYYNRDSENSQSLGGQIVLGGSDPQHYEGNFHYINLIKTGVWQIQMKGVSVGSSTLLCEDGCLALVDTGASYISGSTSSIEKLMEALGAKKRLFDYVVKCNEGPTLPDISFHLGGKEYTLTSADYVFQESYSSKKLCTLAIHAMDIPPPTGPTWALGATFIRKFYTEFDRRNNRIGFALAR", "test": "Compound was tested for the inhibition of human plasma renin(Hu Renin)", "assay_type": "cell-free", "units": {"IC50": "nM"}, "values": [{"smiles": "CCCOP(=O)(OCCC)C(O)[C@H](CC1CCCCC1)NC(=O)[C@H](CSC)NC(=O)[C@H](Cc1ccccc1)NC(=O)N1CCOCC1", "note": "(some centres not stated)", "IC50": 60}, {"smiles": "CSC[C@H](NC(=O)[C@H](Cc1ccccc1)NC(=O)N1CCOCC1)C(=O)N[C@@H](CC1CCCCC1)C(O)P(=O)(OC(C)C)OC(C)C", "note": "(some centres not stated)", "IC50": 1400}, {"smiles": "COP(=O)(OC)C(O)[C@H](CC1CCCCC1)NC(=O)[C@H](CCc1cnc[nH]1)NC(=O)[C@H](Cc1ccccc1)NC(=O)N1CCOCC1", "note": "(some centres not stated)", "IC50": 190}, {"smiles": "COP(=O)(OC)C(O)[C@H](CC1CCCCC1)NC(=O)[C@H](CSC)NC(=O)[C@H](Cc1ccccc1)NC(=O)N1CCOCC1", "note": "(some centres not stated)", "IC50": 5.8}, {"smiles": "CCOP(=O)(OCC)C(O)[C@H](CC1CCCCC1)NC(=O)[C@H](CSC)NC(=O)[C@H](Cc1ccccc1)NC(=O)N1CCOCC1", "note": "(some centres not stated)", "IC50": 25}, {"smiles": "CCCC[C@H](NC(=O)[C@H](Cc1ccccc1)NC(=O)N1CCOCC1)C(=O)N[C@@H](CC1CCCCC1)C(O)P(=O)(OC)OC", "note": "(some centres not stated)", "IC50": 32}, {"smiles": "CSC[C@H](NC(=O)[C@H](Cc1ccccc1)NC(=O)N1CCOCC1)C(=O)N[C@@H](CC1CCCCC1)C(O)P(=O)(OCc1ccccc1)OCc1ccccc1", "note": "(some centres not stated)", "IC50": 190}]}]}
